# Molecular target: T1, human recombinant P2X7 receptors (Homo sapiens, UniProt Q99572)
# T1 construct: expressed in transfected cells
# T1 sequence (Q99572 1-595): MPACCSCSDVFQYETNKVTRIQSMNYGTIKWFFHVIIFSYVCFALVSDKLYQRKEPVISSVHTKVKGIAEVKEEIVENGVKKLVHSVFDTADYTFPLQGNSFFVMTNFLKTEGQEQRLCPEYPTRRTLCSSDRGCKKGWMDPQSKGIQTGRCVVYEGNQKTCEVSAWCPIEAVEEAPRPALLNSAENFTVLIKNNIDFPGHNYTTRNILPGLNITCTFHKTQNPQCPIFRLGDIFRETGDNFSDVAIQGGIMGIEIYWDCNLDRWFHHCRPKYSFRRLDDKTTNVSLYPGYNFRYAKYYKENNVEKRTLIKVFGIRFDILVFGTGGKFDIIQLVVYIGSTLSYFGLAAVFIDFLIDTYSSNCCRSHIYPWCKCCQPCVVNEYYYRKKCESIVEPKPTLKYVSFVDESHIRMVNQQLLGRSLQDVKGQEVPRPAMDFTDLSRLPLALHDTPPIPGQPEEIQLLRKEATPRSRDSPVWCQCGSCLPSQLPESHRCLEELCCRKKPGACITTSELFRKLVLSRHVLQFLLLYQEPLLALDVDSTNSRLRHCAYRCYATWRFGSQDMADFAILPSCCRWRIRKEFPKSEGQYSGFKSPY
# Assay: Ethidium Accumulation Assay 2 (HEK293 cells, ATP-induced ethidium uptake)
# Assay type: cell-based
# Conditions: HEK293 cells expressing human P2X7; sometimes mean of more than one measurement; read-out: Assay 2 (antagonist pIC50 for blocking ATP responses) (converted)
# Experimental: Eithidium Accumulation Assay 2
# Human Embryonic Kidney (HEK) 293 cells, stably expressing human recombinant P2X7 receptors, were grown in poly-D-lysine pretreated 96 well plates for 24 hours at 37° C.
# The cells were washed with assay buffer (100 μL), before addition of 25 μL of assay buffer and then 25 ul of assay buffer containing the putative P2X7 receptor antagonist compound. The cells were then incubated at room temperature (19-21° C.) for 30 min before addition of ATP solution (50 μM). […] Antagonist pIC50 values for blocking ATP responses were determined using iterative curve fitting techniques.
row,SMILES,IC50 [µM]
1,"O=C(c1ccc(Cl)cc1Cl)N1CCn2c(nnc2-c2ccns2)C1 [Example 158, 7-[(2,4-dichlorophenyl)carbonyl]-3-(5-isothiazolyl)-5,6,7,8-tetrahydro[1,2,4]triazolo[4,3-a]pyrazine]",< 0.1
2,"O=C(c1ccc(F)c(Cl)c1Cl)N1CCn2c(nnc2-c2cccnn2)C1 [Example 168, 7-[(2,3-Dichloro-4-fluorophenyl)carbonyl]-3-(3-pyridazinyl)-5,6,7,8-tetrahydro[1,2,4]triazolo[4,3-a]pyrazine]",< 0.1
3,"O=C(c1cccc(C(F)(F)F)c1Cl)N1CCn2c(nnc2-c2ncns2)C1 [Example 164, 7-{[2-chloro-3-(trifluoromethyl)phenyl]carbonyl}-3-(1,2,4-thiadiazol-5-yl)-5,6,7,8-tetrahydro[1,2,4]triazolo[4,3-a]pyrazine]",< 0.01
4,"O=C(c1ccc(Cl)c(F)c1Cl)N1CCn2c(nnc2-n2cccn2)C1 [Example 184, 7-[(2,4-Dichloro-3-fluorophenyl)carbonyl]-3-(1H-pyrazol-1-yl)-5,6,7,8-tetrahydro[1,2,4]triazolo[4,3-a]pyrazine]",< 0.1
5,"Cc1c(C(=O)N2CCn3c(nnc3-c3ncns3)C2)ccc(F)c1Cl [Example 193, 7-[(3-Chloro-4-fluoro-2-methylphenyl)carbonyl]-3-(1,2,4-thiadiazol-5-yl)-5,6,7,8-tetrahydro[1,2,4]triazolo[4,3-a]pyrazine]",< 0.01
6,"O=C(c1ccc(F)cc1Cl)N1CCn2c(nnc2-c2nccs2)C1 [Example 144, 7-[(2-chloro-4-fluorophenyl)carbonyl]-3-(1,3-thiazol-2-yl)-5,6,7,8-tetrahydro[1,2,4]triazolo[4,3-a]pyrazine]",< 0.1
7,"Cc1c(C(=O)N2CCn3c(nnc3-c3nccs3)C2)ccc(F)c1Cl [Example 201, 7-[(3-Chloro-4-fluoro-2-methylphenyl)carbonyl]-3-(1,3-thiazol-2-yl)-5,6,7,8-tetrahydro[1,2,4]triazolo[4,3-a]pyrazine]",< 0.01
8,"Cc1cnc(-c2nnc3n2CCN(C(=O)c2ccc(Cl)c(F)c2Cl)C3)s1 [Example 188, 7-[(2,4-Dichloro-3-fluorophenyl)carbonyl]-3-(5-methyl-1,3-thiazol-2-yl)-5,6,7,8-tetrahydro[1,2,4]triazolo[4,3-a]pyrazine]",< 0.1
9,"O=C(c1ccc(F)cc1Cl)N1CCn2c(nnc2-c2cnc(F)cn2)C1 [Example 165, 7-[(2-chloro-4-fluorophenyl)carbonyl]-3-(5-fluoro-2-pyrazinyl)-5,6,7,8-tetrahydro[1,2,4]triazolo[4,3-a]pyrazine]",< 0.1
10,"O=C(c1ccc(Cl)c(F)c1Cl)N1CCn2c(nnc2-c2ccc(F)cc2O)C1 [Example 150, 2-{7-[(2,4-dichloro-3-fluorophenyl)carbonyl]-5,6,7,8-tetrahydro[1,2,4]triazolo[4,3-a]pyrazin-3-yl}-5-fluorophenol]",< 0.1
11,"O=C(c1ccc(Cl)c(F)c1Cl)N1CCn2c(nnc2-c2ccccn2)C1 [Example 173, 7-[(2,4-dichloro-3-fluorophenyl)carbonyl]-3-(2-pyridinyl)-5,6,7,8-tetrahydro[1,2,4]triazolo[4,3-a]pyrazine]",< 0.01
12,"O=C(c1cccc(C(F)(F)F)c1Cl)N1CCn2c(nnc2-c2cccnc2O)C1 [Example 163, 3-(7-{[2-chloro-3-(trifluoromethyl)phenyl]carbonyl}-5,6,7,8-tetrahydro[1,2,4]triazolo[4,3-a]pyrazin-3-yl)-2-pyridinol]",< 0.1
13,"Cc1c(C(=O)N2CCn3c(nnc3-c3ccc(F)cn3)C2)ccc(F)c1Cl [Example 156, 7-[(3-chloro-4-fluoro-2-methylphenyl)carbonyl]-3-(5-fluoro-2-pyridinyl)-5,6,7,8-tetrahydro[1,2,4]triazolo[4,3-a]pyrazine]",< 0.01
14,"O=C(c1ccc(Cl)c(F)c1Cl)N1CCn2c(nnc2-c2ncccc2O)C1 [Example 175, 2-{7-[(2,4-dichloro-3-fluorophenyl)carbonyl]-5,6,7,8-tetrahydro[1,2,4]triazolo[4,3-a]pyrazin-3-yl}-3-pyridinol]",< 0.1
